Measurements from patent publication US8933224B2, “Triazine derivatives” (Pfizer Inc., priority 2013, dated 2015).

Experiments:
[1] = molecular target: rat PDE10 enzyme (Rattus norvegicus (Rat), UniProt Q9QYJ6); experiment: PDE10 scintillation proximity assay (SPA), inhibition of rat PDE10 enzyme activity; format: biochemical; settings: geometric mean of 2-4 determinations unless otherwise indicated (b: ≧5 determinations; c: single determination)
Method in brief: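 SPA with fixed recombinant PDE10 (Sf21-expressed, Ni-NTA and Mono Q purified) converting ~20% of 20 nM ³H-cAMP in 50 mM TRIS pH 7.5, 1.3 mM MgCl2, 0.01% Brij, across an inhibitor range.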

[2] = molecular target: human recombinant PDE10 enzyme (PDE10A) (Homo sapiens, UniProt Q9Y233); experiment: PDE10 scintillation proximity assay (SPA), inhibition of human recombinant PDE10 enzyme activity; format: biochemical; settings: geometric mean of 2-4 determinations unless otherwise indicated (b: ≧5 determinations; c: single determination)
Experimental: PDE10 activity was measured using a scintillation assay (SPA-based method) similar to that previously described by Seeger, T. F. et al., Brain Research 985 (2003) 113-126. The compounds' relative activity as PDE10 inhibitors was investigated by assaying a fixed amount of enzyme in the presence of the test compound and low substrate concentration (cAMP) such that an IC50 could be determined. […] The assay is performed in a 384-well format with 50 μL assay buffer (50 mM TRIS pH 7.5; 1.3 mM MgCl2; 0.01% Brij) containing enough PDE10 to convert ˜20% of 20 nM ^3H-cAMP, and a range of inhibitors. Reactions are incubated for 30 minutes at 25° C. The addition of 20 μL of 8 mg/ml yttrium silicate SPA beads (PerkinElmer) stops the reaction. The plates are sealed (TopSeal, PerkinElmer) and the beads are allowed to settle for 8 hrs, after which they are read on the Trilux Microbeta overnight. ^1Rat enzyme preparation:^2Human enzyme preparation:
Human PDE10A coding sequence (amino acids 21 to 797 from the sequence with accession number NP_001124162.1) was synthesized using codon optimization for insect expression and cloned into the baculovirus expression vector pFastBac (Invitrogen) engineered to include a N-terminal His6 affinity tag to aid in purification as described in Seeger, T. F. et al., Brain Research 985 (2003) 113-126. The recombinant Bacmid was isolated and used to transfect sf9 insect cells to generate a viral stock. To generate cell paste for purification, sf21 cells were infected with the virus stock and cells were harvested 72 hours after infection as described in Seeger, T. F. et al., Brain Research 985 (2003) 113-126. Insect cell paste was lysed and after centrifugation, the supernatant was chromatographed on Ni-NTA agarose (Qiagen) as described in Seeger, T. F. et al., Brain Research 985 (2003) 113-126. Ni-NTA agarose eluting fractions containing PDE10A were chromatographed on Superdex 200 (GE Healthcare Life Sciences) in 50 mM Tris HCl pH 7.5, 150 mM NaCl, 1 mM EDTA, 10% glycerol, 2 mM TCEP, 1.5 mM benzamidine, EDTA-free protease inhibitors (Roche), and 5 μM E-64.

rat PDE10 enzyme, sequence (Q9QYJ6 24-794): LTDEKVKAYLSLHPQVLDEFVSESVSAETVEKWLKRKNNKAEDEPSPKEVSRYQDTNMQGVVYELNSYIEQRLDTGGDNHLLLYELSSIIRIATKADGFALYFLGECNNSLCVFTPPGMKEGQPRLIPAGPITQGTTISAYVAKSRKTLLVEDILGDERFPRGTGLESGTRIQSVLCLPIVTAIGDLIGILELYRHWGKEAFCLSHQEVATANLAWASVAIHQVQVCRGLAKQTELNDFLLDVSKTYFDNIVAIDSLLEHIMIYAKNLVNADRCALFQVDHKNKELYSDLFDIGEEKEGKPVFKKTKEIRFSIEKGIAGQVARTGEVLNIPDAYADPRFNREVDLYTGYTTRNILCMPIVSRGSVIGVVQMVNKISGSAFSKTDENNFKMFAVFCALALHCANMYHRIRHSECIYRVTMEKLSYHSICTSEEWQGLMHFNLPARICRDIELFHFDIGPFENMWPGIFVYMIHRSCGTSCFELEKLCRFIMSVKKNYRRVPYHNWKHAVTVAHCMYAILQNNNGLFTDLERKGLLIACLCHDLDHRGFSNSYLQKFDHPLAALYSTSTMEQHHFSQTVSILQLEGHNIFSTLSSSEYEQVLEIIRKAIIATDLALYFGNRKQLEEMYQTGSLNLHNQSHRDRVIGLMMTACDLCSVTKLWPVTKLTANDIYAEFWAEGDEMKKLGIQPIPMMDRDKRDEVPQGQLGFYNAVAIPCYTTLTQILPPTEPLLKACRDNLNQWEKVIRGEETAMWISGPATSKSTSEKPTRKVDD

SMILES	IC50 [1]	IC50 [2]
Cc1nc2c(s1)CN(c1ncnn3c(C)nc([C@H]4CCOC4)c13)CC2 [Example 23, 7-methyl-4-(2-methyl-6,7-dihydro[1,3]thiazolo[5,4-c]pyridin-5(4H)-yl)-5-[(3R)-tetrahydrofuran-3-yl]imidazo[5,1-f][1,2,4]triazine]	< 5.55 nM	2.53 nM
COc1cnc2c(c1)CN(c1ncnn3c(C)nc(-c4ccccc4F)c13)CC2 [Example 25, 6-[5-(2-fluorophenyl)-7-methylimidazo[5,1-f][1,2,4]triazin-4-yl]-3-methoxy-5,6,7,8-tetrahydro-1,6-naphthyridine]	1.12 nM	1.41 nM
COc1ccc2c(n1)CCN(c1ncnn3c(C)nc([C@@H]4CCOC4)c13)C2 [Example 27, 2-methoxy-6-{7-methyl-5-[(3S)-tetrahydrofuran-3-yl]imidazo[5,1-f][1,2,4]triazin-4-yl}-5,6,7,8-tetrahydro-1,6-naphthyridine]	0.617 nM	0.891 nM
COc1nccc2c1CN(c1ncnn3c(C)nc([C@@H]4CCOC4)c13)CC2 [Example 28, 8-methoxy-2-{7-methyl-5-[(3S)-tetrahydrofuran-3-yl]imidazo[5,1-f][1,2,4]triazin-4-yl}-1,2,3,4-tetrahydro-2,7-naphthyridine]	0.236 nM	0.582 nM
COc1cnc2c(c1)CN(c1ncnn3c(C)nc([C@@H]4CCOC4)c13)CC2 [Example 29, 3-methoxy-6-{7-methyl-5-[(3S)-tetrahydrofuran-3-yl]imidazo[5,1-f][1,2,4]triazin-4-yl}-5,6,7,8-tetrahydro-1,6-naphthyridine]	0.307 nM	0.384 nM
CCOc1nc(C)nc2c1CN(c1ncnn3c(C)nc([C@@H]4CCOC4)c13)CC2 [Example 35, 4-ethoxy-2-methyl-6-{7-methyl-5-[(3S)-tetrahydrofuran-3-yl]imidazo[5,1-f][1,2,4]triazin-4-yl}-5,6,7,8-tetrahydropyrido[4,3-d]pyrimidine]	0.123 nM	0.275 nM
Cc1nc(C)c2c(n1)CCN(c1ncnn3c(C)nc([C@@H]4CCOC4)c13)C2 [Example 38, 2,4-dimethyl-6-{7-methyl-5-[(3S)-tetrahydrofuran-3-yl]imidazo[5,1-f][1,2,4]triazin-4-yl}-5,6,7,8-tetrahydropyrido[4,3-d]pyrimidine]	1.78 nM	2.92 nM
Cc1nc(C2CC2)nc2c1CN(c1ncnn3c(C)nc(-c4ccccc4F)c13)CC2 [Example 40, 2-cyclopropyl-6-[5-(2-fluorophenyl)-7-methylimidazo[5,1-f][1,2,4]triazin-4-yl]-4-methyl-5,6,7,8-tetrahydropyrido[4,3-d]pyrimidine]	0.442 nM	0.98 nM
Cc1nc([C@@H]2CCOC2)c2c(N3CCc4nn(C)c(C5CC5)c4C3)ncnn12 [Example 44, 4-(3-cyclopropyl-2-methyl-2,4,6,7-tetrahydro-5H-pyrazolo[4,3-c]pyridin-5-yl)-7-methyl-5-[(3S)-tetrahydrofuran-3-yl]imidazo[5,1-f][1,2,4]triazine]	0.102 nM	0.11 nM
Cc1nc([C@@H]2CCOC2)c2c(N3CCc4ncccc4C3)ncnn12 [Example 47, 6-{7-methyl-5-[(3S)-tetrahydrofuran-3-yl]imidazo[5,1-f][1,2,4]triazin-4-yl}-5,6,7,8-tetrahydro-1,6-naphthyridine]	0.758 nM	1.42 nM
Cc1nc([C@H]2CCOC2)c2c(N3CCn4ncc(C(F)(F)F)c4C3)ncnn12 [Example 50, 7-methyl-5-[(3R)-tetrahydrofuran-3-yl]-4-[3-(trifluoromethyl)-6,7-dihydropyrazolo[1,5-a]pyrazin-5(4H)-yl]imidazo[5,1-f][1,2,4]triazine]	2.25 nM	3.27 nM
CCc1c2c(nn1C)CCN(c1ncnn3c(C)nc([C@@H]4CCOC4)c13)C2 [Example 57, 4-(3-ethyl-2-methyl-2,4,6,7-tetrahydro-5H-pyrazolo[4,3-c]pyridin-5-yl)-7-methyl-5-[(3S)-tetrahydrofuran-3-yl]imidazo[5,1-f][1,2,4]triazine]	0.364 nM	13.8 nM
COc1ccc2c(c1)CCN(c1ncnn3c(C)nc([C@@H]4CCOC4)c13)C2 [Example 58, 6-methoxy-2-{7-methyl-5-[(3S)-tetrahydrofuran-3-yl]imidazo[5,1-f][1,2,4]triazin-4-yl}-1,2,3,4-tetrahydroisoquinoline]	< 1.16 nM	1.12 nM
COc1cc2c(cn1)CN(c1ncnn3c(C)nc([C@@H]4CCOC4)c13)CC2 [Example 70, 6-methoxy-2-{7-methyl-5-[(3S)-tetrahydrofuran-3-yl]imidazo[5,1-f][1,2,4]triazin-4-yl}-1,2,3,4-tetrahydro-2,7-naphthyridine]	1.52 nM	1.95 nM
COc1cc2c(cn1)CN(c1ncnn3c(C)nc(-c4ccccc4F)c13)CC2 [Example 71, 2-[5-(2-fluorophenyl)-7-methylimidazo[5,1-f][1,2,4]triazin-4-yl]-6-methoxy-1,2,3,4-tetrahydro-2,7-naphthyridine]	3.41 nM	5.77 nM
Cc1ccc2c(n1)CN(c1ncnn3c(C)nc([C@@H]4CCOC4)c13)CC2 [Example 72, 2-methyl-7-{7-methyl-5-[(3S)-tetrahydrofuran-3-yl]imidazo[5,1-f][1,2,4]triazin-4-yl}-5,6,7,8-tetrahydro-1,7-naphthyridine]	0.255 nM	0.539 nM
Cc1nc([C@@H]2CCOC2)c2c(N3CCc4ccc(C5CC5)nc4C3)ncnn12 [Example 74, 2-cyclopropyl-7-{7-methyl-5-[(3S)-tetrahydrofuran-3-yl]imidazo[5,1-f][1,2,4]triazin-4-yl}-5,6,7,8-tetrahydro-1,7-naphthyridine]	0.0896 nM	0.211 nM
Cc1nc(-c2ccccc2F)c2c(N3CCc4ccc(C5CC5)nc4C3)ncnn12 [Example 75, 2-cyclopropyl-7-[5-(2-fluorophenyl)-7-methylimidazo[5,1-f][1,2,4]triazin-4-yl]-5,6,7,8-tetrahydro-1,7-naphthyridine]	3.56 nM	6.03 nM
Cc1nc([C@H]2CCOC2)c2c(N3CCc4c(c(C(C)C)nn4C)C3)ncnn12 [Example 85, 7-methyl-4-{1-methyl-3-(propan-2-yl)-1,4,6,7-tetrahydro-5H-pyrazolo[4,3-c]pyridin-5-yl]-5-[(3R)-tetrahydrofuran-3-yl]imidazo[5,1-f][1,2,4]triazine]	0.556 nM	0.182 nM
Cc1nc([C@@H]2CCOC2)c2c(N3CCc4c(c(C(C)C)nn4C)C3)ncnn12 [Example 86, 7-methyl-4-[1-methyl-3-(propan-2-yl)-1,4,6,7-tetrahydro-5H-pyrazolo[4,3-c]pyridin-5-yl]-5-[(3S)-tetrahydrofuran-3-yl]imidazo[5,1-f][1,2,4]triazine]	0.132 nM	0.0444 nM
Cc1nc2c(c(C(F)(F)F)n1)CN(c1ncnn3c(C)nc([C@@H]4CCOC4)c13)CC2 [Example 88, 2-methyl-6-{7-methyl-5-[(3S)-tetrahydrofuran-3-yl]imidazo[5,1-f][1,2,4]triazin-4-yl}-4-(trifluoromethyl)-5,6,7,8-tetrahydropyrido[4,3-d]pyrimidine]	1.56 nM	3.64 nM
